The record followed here is US12377083B2 (WUHAN LL SCIENCE AND TECHNOLOGY DEVELOPMENT CO., LTD., priority 2019, dated 2025).

What is called CC50 is the concentration that lowers cell viability or growth by half. A high value points to better tolerance by the cells. A word on the IC50: it is the midpoint of a concentration-inhibition curve.

Where only a bound is given, the exact number is not on record here.

What all share (assay type): cell-based
Series [1] has as its system A2058 (human melanoma cells). The experiment in a line: A2058 cell scratch (migration) assay with LPA. As to conditions: 10 μM LPA, scratch area at 24 h. The procedure:
The activity of the compounds disclosed herein at the cell level in vitro is evaluated by A2058 (human melanoma cells, Beina Bio, BNCC341099) cell scratch assay. The inhibitory activity of the compounds against LPAR1 can be reflected by inhibition of cell scratch healing.
After the cell confluence reached 80%, the cell culture plate was taken out and the original medium was discarded. Serum-free medium was then added, and the cells were starved overnight in an incubator (37° C., 5% CO2). The cell culture plate was then taken out, and cell scratches were made along the diameter of the wells using a 200 μL pipette tip. The cell culture plate was then added with 500 μL of serum-free medium and then shaken gently to wash away the residual cells on the scratched surface, and this was repeated twice. The medium was discarded and 500 μL of 1% FBS medium containing the compound was then added, and the mixture was incubated at 37° C. for 30 min. […] Olympus CKX53 was used to observe the scratches, and MShot image analysis system was used to take pictures and measure the scratch area at 0 h. The plate was incubated in the incubator under the conditions of 37° C. and 5% CO2. 24 h later, the scratches were observed again with Olympus CKX53, and MShot image analysis system was used to take pictures and measure the scratch area at 24 h. Cell migration inhibition rate was calculated according to the following formula: […]

The nature of series [2]: In vitro cytotoxicity assay in HepG2 cells, CCK-8 method. As to conditions: human. The procedure:
In vitro cytotoxicity assay for the compounds disclosed herein was performed in HepG2 cells using the CCK-8 method. HepG2 cells (Beina Bio) in the logarithmic growth phase were collected, the concentration of cell suspension was adjusted, and then the cells were plated on a 96-well cell culture plate at 50,000 cells/well. The cells were then incubated overnight in a cell incubator (5% CO2, 37° C.), and after 80-90% cell confluence was achieved, test compounds or vehicle (DMSO) at various concentration gradients were added after medium change. The resulting mixture was incubated in the cell incubator (5% CO2, 37° C.) for 48 h. After the treatment, the medium in the plate was discarded. The plate was washed twice with PBS, added with CCK-8 working solution (Beyotime) at 100 μL per well, and then incubated at 37° C. for 1.5 h away from the light. Absorbance at OD450 nm was measured for each well on a microplate reader, and CC50 value of each compound was analyzed and calculated.
In general terms: Tetrazolium assays rely on reduction of a dye to a coloured formazan, in cell work by metabolically active cells.

Series [3] addresses hLPAR1 (human lysophosphatidic acid receptor 1) (Homo sapiens, UniProt Q92633). The experiment in a line: FLIPR assay of intracellular calcium increase induced by activation of hLPAR1 expressed in CHO-K1 cells. As to conditions: CHO-K1 cells expressing hLPAR1, agonist oleoyl-L-α-lysophosphatidic acid 1 μM; read-out: LPAR1 IC50. The procedure: The antagonist property of the compounds disclosed herein was determined using the FLIPR (fluorescence imaging plate reader) method, wherein the compounds are inhibitors for the intracellular calcium increase induced by activation of hLPAR1 (human lysophosphatidic acid receptor 1, accession No. NM_001401.4) expressed in CHO-K1 cells (Chinese hamster ovary cells K1, ATCC).
Cells at 250,000 cells/mL were seeded into a 96-well plate (25,000 cells/well) 18-24 h prior to the FLIPR experiment and then incubated overnight in a cell incubator. […] Each well was added with 75 μL of […] Fluo-4 AM fluorescent dye (Thermo, F14202) and then the cells were subjected to dye-loading incubation at 37° C. for 1.0 h. The 96-well plate was then washed once with buffer, added with a buffer containing a test compound or a vehicle at 50 μL per well and then incubated for 30 min at room temperature. […] An agonist (oleoyl-L-α-lysophosphatidic acid sodium salt (Sigma, L7260)) at a final concentration of 1 μM or a vehicle (ultrapure water) was then added at 50 μL/well, fluorescence values were measured for 2 min at 1-second intervals, and finally the output fluorescence counts were analyzed.

Chain of hLPAR1 (human lysophosphatidic acid receptor 1) (Q92633 whole entry): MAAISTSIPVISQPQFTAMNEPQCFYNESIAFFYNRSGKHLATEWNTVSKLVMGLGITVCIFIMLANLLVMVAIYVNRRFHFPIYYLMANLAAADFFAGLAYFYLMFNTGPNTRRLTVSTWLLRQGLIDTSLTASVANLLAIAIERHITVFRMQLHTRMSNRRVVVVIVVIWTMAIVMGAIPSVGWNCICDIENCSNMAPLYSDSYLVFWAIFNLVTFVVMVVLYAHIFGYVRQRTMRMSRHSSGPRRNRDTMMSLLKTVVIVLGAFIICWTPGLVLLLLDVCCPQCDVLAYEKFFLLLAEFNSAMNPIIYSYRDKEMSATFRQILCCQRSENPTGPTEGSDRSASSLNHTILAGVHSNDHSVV

Regarding `CN(C(=O)OCc1ocnc1-c1ccc(O[C@H]2CCC[C@H](C(=O)O)C2)c(C(F)(F)F)n1)C1CCCC1` (racemic) [Compound 25], the “Cell migration inhibition rate (%)” value in series [1] is listed as “B (B: 30-50%)”. Also, the CC50 at 48 h in series [2] is greater than 200000 nM. Moreover, the IC50 in series [3] lay in the range of 300 to 10000 nM.

As for `Cc1coc(-c2ccc(O[C@H]3CCC[C@H](C(=O)O)C3)c(C)n2)c1COC(=O)N(C)C1CCCC1` (racemic) [Compound 45], the “Cell migration inhibition rate (%)” value in series [1] is listed as “A (A: 50-70%)”. The CC50 at 48 h in series [2] was greater than 200000 nM. In series [3], the IC50 was less than 50 nM.

For `CN(C(=O)OCc1c(-c2ccc(O[C@H]3CCC[C@H](C(=O)O)C3)c(F)c2)ncn1C)C1CCCC1` (racemic) [Compound 34, (+/−)-(1S,3S)-3-(4-(5-(((cyclopentyl(methyl)carbamoyl)oxy)methyl)-1-methyl-1H-imidazol-4-yl)-2-fluorophenoxy)cyclohexane-1-carboxylic Acid], in series [1], the “Cell migration inhibition rate (%)” value was “B (B: 30-50%)”. For the same compound, in series [2], the CC50 at 48 h is greater than 200000 nM. In series [3], the IC50 was in the range of 50 to 300 nM.

Turning to `Cc1nc(-c2cnn(C)c2COC(=O)N(C)CC2COC2)ccc1O[C@H]1CCC[C@H](C(=O)O)C1` (racemic) [Compound 97], the “Cell migration inhibition rate (%)” value in series [1] is “C (C: 0-30%)”. The IC50 in series [3] was in the range of 300 to 10000 nM.

As to `Cc1onc(-c2cnc(O[C@H]3CCC[C@H](C(=O)O)C3)cn2)c1COC(=O)N(C)C1CCCC1` (racemic) [Compound 102], the “Cell migration inhibition rate (%)” value in series [1] was “A (A: 50-70%)”. Besides, the IC50 in series [3] was less than 50 nM.

Take `Cc1nc(-c2cnn(C)c2COC(=O)N(C)CC2CCOC2)ccc1O[C@H]1CCC[C@H](C(=O)O)C1` (mixture of isomers) [Compound 98, (+/−)-(1S,3S)-3-((2-methyl-6-(1-methyl-5-(((methyl((tetrahydrofuran-3-yl)methyl)carbamoyl)oxy)methyl)-1H-pyrazol-4-yl)pyridin-3-yl)oxy)cyclohexane-1-carboxylic Acid]: the “Cell migration inhibition rate (%)” value in series [1] was “C (C: 0-30%)”. Also, in series [3], the IC50 lay within 300 to 10000 nM.

On to `Cc1noc(-c2ccc(O[C@H]3CCC[C@H](C(=O)O)C3)cn2)c1COC(=O)N(C)C1CC1` (racemic) [Compound 106], for which the “Cell migration inhibition rate (%)” value in series [1] was “B (B: 30-50%)”. In addition, in series [3], the IC50 lay within 300 to 10000 nM.

As to `Cc1nc(-c2cnn(C)c2COC(=O)N(C)C2CCOCC2)ccc1O[C@H]1CCC[C@H](C(=O)O)C1` [Compound 95, (1S,3S)-3-((2-methyl-6-(1-methyl-5-(((methyl(tetrahydro-2H-pyran-4-yl)carbamoyl)oxy)methyl)-1H-pyrazol-4-yl)pyridin-3-yl)oxy)cyclohexane-1-carboxylic Acid], the “Cell migration inhibition rate (%)” value in series [1] is on record as “C (C: 0-30%)”. The IC50 in series [3] lay in the range of 300 to 10000 nM.

On to `CN(C(=O)OCc1c(-c2cnc(O[C@H]3CCC[C@H](C(=O)O)C3)c(O)n2)cnn1C)C1CCCC1` (racemic) [Compound 117], for which the “Cell migration inhibition rate (%)” value in series [1] is on record as “B (B: 30-50%)”. Further, the IC50 in series [3] fell in the range of 300 to 10000 nM.

Consider `CN(C(=O)OCc1c(-c2ccc(O[C@H]3CCC[C@H](C(=O)O)C3)c(F)n2)cnn1C)C1CC1` (racemic) [Compound 108, (+/−) (1S,3S)-3-((6-(5-(((cyclopropyl(methyl)carbamoyl)oxy)methyl)-1-methyl-1H-pyrazol-4-yl)-2-fluoropyridin-3-yl)oxy)cyclohexane-1-carboxylic Acid], for which the “Cell migration inhibition rate (%)” value in series [1] is given as “B (B: 30-50%)”. The IC50 in series [3] is 300 to 10000 nM.

On to `CN(C(=O)OCc1c(-c2cnc(O[C@H]3CCC[C@H](C(=O)O)C3)c(N)n2)cnn1C)C1CCCC1` (racemic) [Compound 94, (+/−)-(1S,3S)-3-((3-amino-5-(5-(((cyclopentyl(methyl)carbamoyl)oxy)methyl)-1-methyl-1H-pyrazol-4-yl)pyrazin-2-yl)oxy)cyclohexane-1-carboxylic Acid], for which the “Cell migration inhibition rate (%)” value in series [1] is reported as “C (C: 0-30%)”. In series [3], the IC50 fell in the range of 300 to 10000 nM.

`CN(CC1CC1)C(=O)OCc1c(-c2ccc(O[C@H]3CCC[C@H](C(=O)O)C3)c(F)n2)cnn1C` (racemic) [Compound 110, (+/−)-(1S,3S)-3-((6-(5-((((cyclopropylmethyl)(methyl)carbamoyl)oxy)methyl)-1-methyl-1H-pyrazol-4-yl)-2-fluoropyridin-3-yl)oxy)cyclohexane-1-carboxylic Acid]: in series [1], the “Cell migration inhibition rate (%)” value is given as “B (B: 30-50%)”. In addition, in series [3], the IC50 was 50 to 300 nM.

Turning to `CN(C(=O)OCc1c(-c2ccc(O[C@H]3CCC[C@H](C(=O)O)C3)c(F)n2)cnn1C)C1CCC1` (racemic) [Compound 109, (+/−)-(1S,3S)-3-((6-(5-(((cyclobutyl(methyl)carbamoyl)oxy)methyl)-1-methyl-1H-pyrazol-4-yl)-2-fluoropyridin-3-yl)oxy)cyclohexane-1-carboxylic Acid], in series [1], the “Cell migration inhibition rate (%)” value is listed as “A (A: 50-70%)”. For the same compound, the IC50 in series [3] is 50 to 300 nM.

As for `CN(C(=O)OCc1c(-c2cnc(O[C@H]3CCC[C@H](C(=O)O)C3)c(Cl)n2)cnn1C)C1CCCC1` [Compound 105], the “Cell migration inhibition rate (%)” value in series [1] is listed as “B (B: 30-50%)”. In addition, in series [3], the IC50 is less than 50 nM.

Take `CN(C(=O)OCc1c(-c2ccc(O[C@H]3CCC[C@H](C(=O)O)C3)c(C#N)n2)cnn1C)C1CCC1` (racemic) [Compound 112, (+/−)-(1S,3S)-3-((2-cyano-6-(5-(((cyclobutyl(methyl)carbamoyl)oxy)methyl)-1-methyl-1H-pyrazol-4-yl)pyridin-3-yl)oxy)cyclohexane-1-carboxylic Acid]: the “Cell migration inhibition rate (%)” value in series [1] is recorded as “B (B: 30-50%)”. Moreover, in series [3], the IC50 fell in the range of 50 to 300 nM.

Consider `Cc1nc(-c2cnn(C)c2COC(=O)N(C)C2COC2)ccc1O[C@H]1CCC[C@H](C(=O)O)C1` (racemic) [Compound 64, (+/−)-(1S,3S)-3-((2-methyl-6-(1-methyl-5-(((methyl(oxetan-3-yl)carbamoyl)oxy)methyl)-1H-pyrazol-4-yl)pyridin-3-yl)oxy)cyclohexane-1-carboxylic Acid], for which the “Cell migration inhibition rate (%)” value in series [1] is given as “C (C: 0-30%)”. Besides, the IC50 in series [3] was in the range of 300 to 10000 nM.

As to `Cc1noc(-c2ccc(O[C@H]3CCC[C@H](C(=O)O)C3)cn2)c1COC(=O)N(C)C1CCCC1` (racemic) [Compound 35, (+/−)-(1S,3S)-3-((6-(4-(((cyclopentyl(methyl)carbamoyl)oxy)methyl)-3-methylisoxazol-5-yl)pyridin-3-yl)oxy)cyclohexane-1-carboxylic Acid], the “Cell migration inhibition rate (%)” value in series [1] is listed as “B (B: 30-50%)”. This compound displayed a CC50 at 48 h in series [2] greater than 200000 nM.

In the case of `CN(C(=O)COc1c(-c2ccc(O[C@H]3CCC[C@H](C(=O)O)C3)c(N3CCOCC3)n2)cnn1C)C1CCC1` (racemic) [Compound 115], the “Cell migration inhibition rate (%)” value in series [1] is “C (C: 0-30%)”. The IC50 in series [3] lay in the range of 300 to 10000 nM.

As to `COc1nn(C)c(COC(=O)N(C)C2CCCC2)c1-c1ccc(O[C@H]2CCC[C@H](C(=O)O)C2)c(C)n1` (racemic) [Compound 88, (+/−)-(1S,3S)-3-((6-(5-(((cyclopentyl(methyl)carbamoyl)oxy)methyl)-3-methoxy-1-methyl-1H-pyrazol-4-yl)-2-methylpyridin-3-yl)oxy)cyclohexane-1-carboxylic Acid], in series [1], the “Cell migration inhibition rate (%)” value is reported as “C (C: 0-30%)”. In addition, the 50% inhibitory concentration (IC50) in series [3] was in the range of 50 to 300 nM.

For the compound `Cc1nc(-c2cnn(C)c2COC(=O)N(C)C2CCOC2)ccc1O[C@H]1CCC[C@H](C(=O)O)C1` (mixture of isomers) [Compound 93], in series [1], the “Cell migration inhibition rate (%)” value is reported as “B (B: 30-50%)”. Besides, in series [3], the IC50 is 300 to 10000 nM.

Consider `CN(C(=O)OCc1c(-c2ccc(O[C@H]3CCC[C@H](C(=O)O)C3)c(O)n2)cnn1C)C1CCCC1` (racemic) [Compound 114, (+/−)-(1S,3S)-3-((6-(5-(((cyclopentyl(methyl)carbamoyl)oxy)methyl)-1-methyl-1H-pyrazol-4-yl)-2-hydroxypyridin-3-yl)oxy)cyclohexane-1-carboxylic Acid], for which, in series [1], the “Cell migration inhibition rate (%)” value was “C (C: 0-30%)”. Further, the IC50 in series [3] is 300 to 10000 nM.
